Each structure is given as a SMILES string.

For assay [1], the system named is HCV replicon I389luc-ubi-neo/NS3-3′/ET in ET (Huh-lucubineo-ET) cells. The assay can be described thus: Replicon assay (Biological Example 2), luciferase readout. It is filed as cell-based. Particulars: Hepatitis C virus. A digest of the protocol: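 EC50 values come from Hill fits of % inhibition of replicon-driven firefly luciferase, relative to no-compound wells. Compounds were serially diluted (10 points, 3-fold, 0.1 nM–50 μM final, 0.5% DMSO) onto ET replicon cells and read after 48 h.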
(In general: Replicon systems follow genome replication, usually without infectious particles.)

The target in another assay is T1, HCV polymerase (Hepatitis C virus genotype 1b, UniProt Q9WMX2).
T1 construct: (His)6 (C); made in house; host or cells: XL-1 cells (E. coli, by own knowledge)
The assay can be described thus: Polymerase assay of Biological Example 1 (IC50 values of Table 3). It is filed as biochemical. Particulars: IC50 values of Table 3, polymerase assay of Biological Example 1; read-out: NS5B-enzyme3.

[2] abbreviates: ET cells, luciferase activity 48 hours after compound.

For the molecule `CC(C)(C)C#Cc1cc(N2C(=O)C3(CCOCC3)OC[C@H]2C2CCCCC2)c(C(=O)O)s1` [Compound 325, 3-((R)-3-Cyclohexyl-5-oxo-1,9-dioxa-4-aza-spiro[5.5]undec-4-yl)-5-(3,3-dimethyl-but-1-ynyl)-thiophene-2-carboxylic acid], the IC50 was not above 100 nM in assay [1] (setting [2]) and 6 nM on HCV polymerase.

As to `CC(C)(C)C#Cc1cc(N2C(=O)[C@](C)(CC(O)CO)OC[C@H]2C2CCCCC2)c(C(=O)O)s1` (stereo partly drawn) [Compound 327, 3-[(2S,5R)-5-Cyclohexyl-2-(2,3-dihydroxy-propyl)-2-methyl-3-oxo-morpholin-4-yl]-5-(3,3-dimethyl-but-1-ynyl)-thiophene-2-carboxylic acid], the results for the IC50 (in assay [1] (setting [2]); on HCV polymerase) were not above 100 nM and 4 nM, respectively.

As for `CC(C)(C)C#Cc1cc(N2C(=O)[C@](C)(CCO)OC[C@H]2C2CCCCC2)c(C(=O)O)s1` [Compound 328, 3-[(2S,5R)-5-Cyclohexyl-2-(2-hydroxy-ethyl)-2-methyl-3-oxo-morpholin-4-yl]-5-(3,3-dimethyl-but-1-ynyl)-thiophene-2-carboxylic acid], the IC50 in assay [1] (setting [2]) is not above 100 nM; on HCV polymerase it was 6 nM.

As for `CC(C)(C)C#Cc1cc(N2C(=O)C(CO)OC[C@H]2C2CCCCC2)c(C(=O)O)s1` (stereo partly drawn) [Compound 329, 3-((R)-5-Cyclohexyl-2-hydroxymethyl-3-oxo-morpholin-4-yl)-5-(3,3-dimethyl-but-1-ynyl)-thiophene-2-carboxylic acid], the results for the IC50 (in assay [1] (setting [2]); on HCV polymerase) were not above 100 nM and 5 nM, respectively.

On to `CC(C)(C)C#Cc1cc(N2C(=O)[C@@](C)(CC(O)CO)OC[C@H]2C2CCCCC2)c(C(=O)O)s1` (stereo partly drawn) [Compound 330, 3-[(2R,5R)-5-Cyclohexyl-2-(2,3-dihydroxy-propyl)-2-methyl-3-oxo-morpholin-4-yl]-5-(3,3-dimethyl-but-1-ynyl)-thiophene-2-carboxylic acid], for which the values for the IC50 (in assay [1] (setting [2]); on HCV polymerase) were not above 100 nM and 3 nM, respectively.

Take `CC(C)(C)C#Cc1cc(N2C(=O)[C@H](CC(O)CO)OC[C@H]2C2CCCCC2)c(C(=O)O)s1` (stereo partly drawn) [Compound 331, 3-[(2S,5R)-5-Cyclohexyl-2-(2,3 dihydroxy-propyl)-3-oxo-morpholin-4-yl]-5-(3,3-dimethyl-but-1-ynyl)-thiophene-2 carboxylic acid]: the IC50 in assay [1] (between 100 nM and 5.0 uM) was 100 to 5000 nM; on HCV polymerase, 8 nM.

For `CC(C)(C)C#Cc1cc(N2C(=O)[C@H](CCO)OC[C@H]2C2CCCCC2)c(C(=O)O)s1` [Compound 332, 3-[(2S,5R)-5-Cyclohexyl-2-(2-hydroxy-ethyl)-3-oxo-morpholin-4-yl]-5-(3,3-dimethyl-but-1-ynyl)-thiophene-2-carboxylic acid], the IC50 in assay [1] (setting [2]) was not above 100 nM; at HCV polymerase it was 12 nM.

Take `CC(C)(C)C#Cc1cc(N2C(=O)C(CCO)(CCO)OC[C@H]2C2CCCCC2)c(C(=O)O)s1` [Compound 333, 3-[(R)-5-Cyclohexyl-2,2-bis-(2-hydroxy-ethyl)-3-oxo-morpholin-4-yl]-5-(3,3-dimethyl-but-1-ynyl)-thiophene-2-carboxylic acid]: the IC50 in assay [1] (between 100 nM and 5.0 uM) was 100 to 5000 nM; at HCV polymerase, 10 nM.

Take `CC(C)(C)C#Cc1cc(N2C(=O)[C@H](O)CC[C@H]2C2CCCCC2)c(C(=O)O)s1` [Compound 334, 3-((3R,6S)-6-Cyclohexyl-3-hydroxy-2-oxo-piperidin-1-yl)-5-(3,3-dimethyl-but-1-ynyl)-thiophene-2-carboxylic acid]: the IC50 in assay [1] (setting [2]) was not above 100 nM; on HCV polymerase, 3 nM.

With `CC(C)(C)C#Cc1cc(N2C(=O)CCCC[C@H]2C2CCCCC2)c(C(=O)O)s1` [Compound 335, 3-((S)-2-Cyclohexyl-7-oxo-azepan-1-yl)-5-(3,3-dimethyl-but-1-ynyl)-thiophene-2-carboxylic acid], the IC50 in assay [1] (between 100 nM and 5.0 uM) was 100 to 5000 nM; on HCV polymerase, 24 nM.

Regarding `C[C@@H](O)C[C@H]1OC[C@@H](C2CCCCC2)N(c2cc(C#CC(C)(C)C)sc2C(=O)O)C1=O` [Compound 336, 3-[(2R,5R)-5-Cyclohexyl-2-((R)-2-hydroxy-propyl)-3-oxo-morpholin-4-yl]-5-(3,3-dimethyl-but-1-ynyl)-thiophene-2-carboxylic acid], the IC50 in assay [1] (setting [2]) was not above 100 nM; at HCV polymerase, 3 nM.

For the molecule `C[C@H](O)C[C@H]1OC[C@@H](C2CCCCC2)N(c2cc(C#CC(C)(C)C)sc2C(=O)O)C1=O` [Compound 337, 3-[(2R,5R)-5-Cyclohexyl-2-((S)-2-hydroxy-propyl)-3-oxo-morpholin-4-yl]-5-(3,3-dimethyl-but-1-ynyl)-thiophene-2-carboxylic acid], the IC50 in assay [1] (setting [2]) was not above 100 nM; on HCV polymerase, 2 nM.

Take `CC(C)(C)C#Cc1cc(N2C(=O)[C@H](CCCCO)OC[C@H]2C2CCCCC2)c(C(=O)O)s1` [Compound 338, 3-[(2S,5R)-5-Cyclohexyl-2-(4-hydroxy-butyl)-3-oxo-morpholin-4-yl]-5-(3,3-dimethyl-but-1-ynyl)-thiophene-2-carboxylic acid]: the IC50 in assay [1] (between 100 nM and 5.0 uM) is 100 to 5000 nM; on HCV polymerase it was 31 nM.

`CC(C)(C)C#Cc1cc(N2C(=O)C(CCCO)CC[C@H]2C2CCCCC2)c(C(=O)O)s1` (stereo partly drawn) [Compound 339, 3-[(S)-6-Cyclohexyl-3-(3-hydroxy-propyl)-2-oxo-piperidin-1-yl]-5-(3,3-dimethyl-but-1-ynyl)-thiophene-2-carboxylic acid]: the figures for the IC50 (in assay [1] (setting [2]); at HCV polymerase) were not above 100 nM and 8 nM, respectively.

As to `CC(C)(C)C#Cc1cc(N2C(=O)C(N)CC[C@H]2C2CCCCC2)c(C(=O)O)s1` (stereo partly drawn) [Compound 340, 3-((S)-3-Amino-6-cyclohexyl-2-oxo-piperidin-1-yl)-5-(3,3-dimethyl-but-1-ynyl)-thiophene-2-carboxylic acid], the figures for the IC50 (in assay [1] (setting [2]); at HCV polymerase) were not above 100 nM and 8 nM, respectively.

On to `CC(C)(C)C#Cc1cc(N2C(=O)C(CCO)CC[C@H]2C2CCCCC2)c(C(=O)O)s1` (stereo partly drawn) [Compound 342, 3-[(S)-6-Cyclohexyl-3-(2-hydroxy-ethyl)-2-oxo-piperidin-1-yl]-5-(3,3-dimethyl-but-1-ynyl)-thiophene-2-carboxylic acid], for which the IC50 in assay [1] (setting [2]) is not above 100 nM; on HCV polymerase it was 18 nM.

The values are drawn from patent US9498483B2, “2,3,5-trisubstituted thiophene compounds and uses thereof” (priority 2010, dated 2016).
